Experiment [1] relates to zymosan-stimulated footpad edema. Nature of the experiment: Mouse zymosan-stimulated footpad edema reaction. In kind it is in vivo. The conditions noted are these: ICR female mice, oral 0.1 to 500 mg/kg, compared with positive control group. Put shortly:
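Female ICR mice (6–7 weeks, n=8) dosed orally at 0.1 to 500 mg/kg in 0.5% methylcellulose; 1 h later zymosan (1 mg/ml, 0.02 ml) injected s.c. into right hind footpad. Edema volume at 1 and 2 h gave AUC to 2 h; suppression (%) calculated against positive control AUC.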

The test system of experiment [2] is PGE2 production from IL-1β-stimulated MG-63 cells. Briefly: Suppressing action on PGE2 production from IL-1β-stimulated MG-63 cells. In kind it is cell-based. The conditions noted are these: Homo sapiens, IL-1β 1 ng/ml, 18 hours, read-out: PGE2 production suppression ratio. In short, it runs like this: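 PGE2 in 18 h supernatants was quantified by EIA and expressed as % suppression relative to IL-1β-only and unstimulated controls. Cells were the MG-63 osteosarcoma line, plated at 2×10^4/well, given compound in 0.5% FBS EMEM, then 1 ng/ml IL-1β final.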

The subject of experiment [3] is PGD2 production from IgE-stimulated RBL-2H3 cells. Nature of the experiment: Suppressing action on PGD2 production from IgE-stimulated RBL-2H3 cells. The conditions noted are these: Rattus norvegicus, 10 min, IgE/DNP-BSA stimulated RBL-2H3 cells, read-out: PGD2 production suppression ratio. It counts as cell-based. Put shortly: (§1)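 Rat RBL-2H3 mastocytoma cells, sensitized 30 min with anti-DNP-BSA IgE, then given test compound in 0.5% FBS medium and stimulated with DNP-BSA (100 ng/ml final). Supernatant PGD2 and LTB4 were measured by EIA after 10 min. Suppression ratio is calculated against unstimulated and stimulant-only controls.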

Experiment [4] has as its system IgE-stimulated footpad edema. Briefly: Mouse IgE-stimulated footpad edema reaction. It counts as in vivo. As to conditions: C57BL/6 male mice, oral 0.1 to 500 mg/kg, compared with positive control group. As for the experimental part: 4. Suppressing Effect on Mouse IgE-stimulated Footpad Edema Reaction
Suppression on footpad edema caused by IgE antibody as an allergic stimulant was studied by the following method. Groups of C57BL/6 male mice (9- to 11-week old) each consisting of five mice were used for the test. Anti-DNP-BSA IgE serum was subcutaneously administered in a volume of 20 μl to right hind leg footpad of each mouse one day before the test. A test compound was suspended or dissolved in purified water containing 0.5% methylcellulose and orally administered to the test animals at 0.1 to 500 mg/0.2 ml/kg. To the control group, purified water containing 0.5% methylcellulose was administered in a similar manner, which was not added with the test compound. Two hours after the administration of the test compound, 0.2 ml of a solution of DNP-BSA dissolved in physiological saline (Otsuka Pharmaceutical) at 2.5 μg/ml was intravenously administered. The thickness of right hind leg footpad was measured by using a digital thickness gauge (MITSUTOYO) 10, 15, 20, and 30 minutes after the administration of DNP-BSA. A difference of the thickness of footpad measured above and the thickness before the administration of the test compound measured beforehand was regarded as a thickness of edema.
For the thickness of the edema at 10, 15, 20 and 30 minutes after the DNP-BSA administration, a graph was prepared indicating time in abscissa and the edema thickness in ordinate, and edema thickness AUC […] was obtained by calculation according to the following equation. Edema thickness AUC (mm·minute)=1/2×10×A+5×(A+B)/2+5×(B+C)/2+10×(C+D)/2 • A: Edema thickness 10 minutes after DNP-BSA administration • B: Edema thickness 15 minutes after DNP-BSA administration • C: Edema thickness 20 minutes after DNP-BSA administration • D: Edema thickness 30 minutes after DNP-BSA administration
A suppressing ratio on edema of a test compound was obtained by calculation in accordance with the following equation. Edema suppression ratio (%)=[1−B/A]×100 • A: Edema thickness AUC of positive control • B: Edema thickness AUC of test compound administered group (2) Measurement Results

Experiment [5] relates to LTB4 production from IgE-stimulated RBL-2H3 cells. Nature of the experiment: Suppressing action on LTB4 production from IgE-stimulated RBL-2H3 cells. The conditions noted are these: Rattus norvegicus, 10 min, IgE/DNP-BSA stimulated RBL-2H3 cells, read-out: LTB4 production suppression ratio. It counts as cell-based. In short, it runs like this: as §1

For the compound `O=C(O)CCc1ccc(OCC2CCCCC2)c(-c2ccc3cc(O)ccc3c2)c1` [Compound 002, 3-[4-cyclohexylmethyloxy-3-(6-hydroxynaphthalen-2-yl)phenyl]propionic acid], the “suppression of footpad edema caused by zymosan” value (“suppression … by zymosan” below) in experiment [1] is “suppressed footpad edema”. In addition, the inhibition at 0.4 µM in experiment [2], in experiment [3] and in experiment [5] was at least 50% throughout. Further, in experiment [4], the “suppression of footpad edema caused by IgE stimulation” value (“suppression … by IgE stimulation” below) was “suppressed the footpad edema”.

Regarding `Nc1ccc2cc(-c3cc(CCC(=O)O)ccc3OCC3CCCC3)ccc2c1` [Compound 012, 3-[3-(6-aminonaphthalen-2-yl)-4-cyclopentylmethyloxyphenyl]propionic acid], the “suppression … by zymosan” value in experiment [1] is “suppressed footpad edema”. Further, the inhibition at 0.4 µM in experiment [2], in experiment [3] and in experiment [5] was at least 50% each time. The “suppression … by IgE stimulation” value in experiment [4] is on record as “suppressed the footpad edema”.

With `Nc1ccc2ccc(-c3cc(CCC(=O)O)ccc3OCC3CCCC3)cc2c1` [Compound 014, 3-[3-(7-aminonaphthalen-2-yl)-4-cyclopentylmethyloxyphenyl]propionic acid], the inhibition at 0.4 µM in experiment [2], in experiment [3] and in experiment [5] was at least 50% each time. In addition, the “suppression … by IgE stimulation” value in experiment [4] is “suppressed the footpad edema”.

For `O=C(O)CCc1ccc(OCC2CCCC2)c(-c2ccc3ccccc3c2)c1` [Compound 039, 3-[4-cyclopentylmethyloxy-3-(naphthalen-2-yl)phenyl]propionic acid], in experiment [1], the “suppression … by zymosan” value was “suppressed footpad edema”. The inhibition at 0.4 µM in experiment [2], in experiment [3] and in experiment [5] was at least 50% each time. In addition, in experiment [4], the “suppression … by IgE stimulation” value is given as “suppressed the footpad edema”.

Consider `O=C(O)CCc1ccc(OC2CCCC2)c(-c2ccc3ccccc3c2)c1` [Compound 043, 3-[4-cyclopentyloxy-3-(naphthalen-2-yl)phenyl]propionic acid], for which the “suppression … by zymosan” value in experiment [1] is “suppressed footpad edema”. Besides, the inhibition at 0.4 µM in experiment [2], in experiment [3] and in experiment [5] was at least 50% throughout. In experiment [4], the “suppression … by IgE stimulation” value is “suppressed the footpad edema”.

For the compound `O=C(O)CCc1ccc(OCCC2CCCC2)c(-c2ccc3ccccc3c2)c1` [Compound 047, 3-[4-(2-cyclopentylethyloxy)-3-(naphthalen-2-yl)phenyl]propionic acid], the “suppression … by zymosan” value in experiment [1] was “suppressed footpad edema”. Moreover, the inhibition at 0.4 µM in experiment [2], in experiment [3] and in experiment [5] was at least 50% in each case. Besides, the “suppression … by IgE stimulation” value in experiment [4] is listed as “suppressed the footpad edema”.

Take `O=C(O)CCc1ccc(OCc2cccc(Cl)c2Cl)c(-c2ccc3[nH]ccc3c2)c1` [Compound 160, 3-[4-(2,3-dichlorophenylmethyloxy)-3-(1H-indol-5-yl)phenyl]propionic acid]: the inhibition at 0.4 µM in experiment [2], in experiment [3] and in experiment [5] was at least 50% each time. Further, the “suppression … by IgE stimulation” value in experiment [4] is on record as “suppressed the footpad edema”.

On to `O=C(O)CCc1ccc(OCc2ccc(Cl)c(Cl)c2)c(-c2ccc3[nH]ccc3c2)c1` [Compound 166, 3-[4-(3,4-dichlorophenylmethyloxy)-3-(1H-indol-5-yl)phenyl]propionic acid], for which the inhibition at 0.4 µM in experiment [2], in experiment [3] and in experiment [5] was at least 50% each time. Moreover, the “suppression … by IgE stimulation” value in experiment [4] was “suppressed the footpad edema”.

As for `O=C(O)CCc1ccc(OCc2cccc3ccccc23)c(-c2ccc3[nH]ccc3c2)c1` [Compound 190, 3-{3-(1H-indol-5-yl)-4-[(naphthalen-1-yl)methyloxy]phenyl}propionic acid], the inhibition at 0.4 µM in experiment [2], in experiment [3] and in experiment [5] was at least 50% each time. Besides, in experiment [4], the “suppression … by IgE stimulation” value was “suppressed the footpad edema”.

Consider `Cc1ccccc1CCOc1ccc(CCC(=O)O)cc1-c1ccc2[nH]ccc2c1` [Compound 200, 3-{3-(1H-indol-5-yl)-4-[2-(2-methylphenyl)ethyloxy]phenyl}propionic acid], for which the “suppression … by zymosan” value in experiment [1] is “suppressed footpad edema”. In addition, the inhibition at 0.4 µM in experiment [2] is at least 50%. In addition, in experiment [4], the “suppression … by IgE stimulation” value was “suppressed the footpad edema”.

Take `Cc1cccc(CCOc2ccc(CCC(=O)O)cc2-c2ccc3[nH]ccc3c2)c1` [Compound 202, 3-{3-(1H-indol-5-yl)-4-[2-(3-methylphenyl)ethyloxy]phenyl}propionic acid]: the “suppression … by zymosan” value in experiment [1] is on record as “suppressed footpad edema”. For the same compound, the inhibition at 0.4 µM in experiment [2] is at least 50%. For the same compound, in experiment [4], the “suppression … by IgE stimulation” value is “suppressed the footpad edema”.

As to `COc1ccccc1CCOc1ccc(CCC(=O)O)cc1-c1ccc2[nH]ccc2c1` [Compound 205, 3-{3-(1H-indol-5-yl)-4-[2-(2-methoxyphenyl)ethyloxy]phenyl}propionic acid], in experiment [1], the “suppression … by zymosan” value was “suppressed footpad edema”. The inhibition at 0.4 µM in experiment [2] is at least 50%. Besides, the “suppression … by IgE stimulation” value in experiment [4] is “suppressed the footpad edema”.

On to `O=C(O)CCc1ccc(OCCc2ccccc2Cl)c(-c2ccc3[nH]ccc3c2)c1` [Compound 209, 3-{4-[2-(2-chlorophenyl)ethyloxy]-3-(1H-indol-5-yl)phenyl}propionic acid], for which the “suppression … by zymosan” value in experiment [1] is “suppressed footpad edema”. The inhibition at 0.4 µM in experiment [2] is at least 50%. Besides, in experiment [4], the “suppression … by IgE stimulation” value is on record as “suppressed the footpad edema”.

On to `O=C(O)CCc1ccc(OCCc2ccccc2C(F)(F)F)c(-c2ccc3[nH]ccc3c2)c1` [Compound 214, 3-[3-(1H-indol-5-yl)-4-{2-[2-(trifluoromethyl)phenyl]-ethyloxy}phenyl]propionic acid], for which the inhibition at 0.4 µM in experiment [2], in experiment [3] and in experiment [5] was at least 50% each time. In addition, the “suppression … by IgE stimulation” value in experiment [4] is recorded as “suppressed the footpad edema”.

For the compound `O=C(O)CCc1ccc(OCCc2ccc3ccccc3c2)c(-c2ccc3[nH]ccc3c2)c1` [Compound 217, 3-{4-[2-(naphthalen-2-yl)ethyloxy]-3-(1H-indol-5-yl)phenyl}propionic acid], the inhibition at 0.4 µM in experiment [2], in experiment [3] and in experiment [5] was at least 50% throughout. Further, the “suppression … by IgE stimulation” value in experiment [4] is given as “suppressed the footpad edema”.

Take `O=C(O)CCc1ccc(OCCOc2ccc(Cl)cc2)c(-c2ccc3[nH]ccc3c2)c1` [Compound 226, 3-{4-[2-(4-chlorophenyloxy)ethyloxy]-3-(1H-indol-5-yl)phenyl}propionic acid]: in experiment [1], the “suppression … by zymosan” value is on record as “suppressed footpad edema”. Moreover, in experiment [2], the inhibition at 0.4 µM was at least 50%. For the same compound, the “suppression … by IgE stimulation” value in experiment [4] was “suppressed the footpad edema”.

Turning to `O=C(O)CCc1ccc(OCCSc2ccccc2)c(-c2ccc3[nH]ccc3c2)c1` [Compound 228, 3-{3-(1H-indol-5-yl)-4-[2-(phenylthio)ethyloxy]phenyl}propionic acid], the “suppression … by zymosan” value in experiment [1] is given as “suppressed footpad edema”. In addition, the inhibition at 0.4 µM in experiment [2] was at least 50%. Besides, in experiment [4], the “suppression … by IgE stimulation” value was “suppressed the footpad edema”.

(Values after patent publication US6867320B2, “Substituted phenylalkanoic acid derivatives and use thereof” (Asahi Kasei Pharma Corporation, priority 2002, dated 2005).)
